This experiment relates to MV-4-11 cells. Briefly: Gene expression microarray analysis (Affymetrix PrimeView) and GSEA. The format is cell-based, human. To be noted: MV-4-11 cells, 48 hours. On the set-up: RFU PODN (11730768_x_at) / Fold change /veh PODN (11730768_x_at) / RFU LINC00158 (11744669_a_at) / Fold change /veh LINC00158 (11744669_a_at) / RFU DUSP10 (11751237_a_at) / Fold change /veh DUSP10 (11751237_a_at) / RFU ID3 (11757404_x_at) / Fold change /veh ID3 (11757404_x_at) / RFU PLEKHG5 (11737974_s_at) / Fold change /veh PLEKHG5 (11737974_s_at) / RFU LRRC4B (11730491_at) / Fold change /veh LRRC4B (11730491_at) / RFU GIMAP4 (11747438_a_at) / Fold change /veh GIMAP4 (11747438_a_at) / RFU KRT8 (11758183_x_at) / Fold change /veh KRT8 (11758183_x_at) / RFU CNN1 (11734310_a_at) / Fold change /veh CNN1 (11734310_a_at) / RFU VPS37D (11726825_at) / Fold change /veh VPS37D (11726825_at) / RFU C10orf10 (11716522_x_at) / Fold change /veh C10orf10 (11716522_x_at) / RFU KIR2DL2 /// KIR2DL4 /// KIR2DL5A /// KIR2DL5B /// KIR2DS1 /// KIR2DS2 /// KIR2DS3 /// KIR2DS4 /// KIR3DL3 /// KIR3DL3 /// KIR3DS1 (11738374_at) / Fold change /veh KIR2DL2 /// KIR2DL4 /// KIR2DL5A /// KIR2DL5B /// KIR2DS1 /// KIR2DS2 /// KIR2DS3 /// KIR2DS4 /// KIR3DL3 /// KIR3DL3 /// KIR3DS1 (11738374_at) / RFU C1QL1 (11718748_at) / Fold change /veh C1QL1 (11718748_at) / RFU TMPRSS4 (11747572_a_at) / Fold change /veh TMPRSS4 (11747572_a_at) / RFU HAMP (11756126_x_at) / Fold change /veh HAMP (11756126_x_at) / RFU RNFT2 (11725882_a_at) / Fold change /veh RNFT2 (11725882_a_at) / RFU NR4A2 (11747474_a_at) / Fold change /veh NR4A2 (11747474_a_at) / RFU ABCC12 (11746883_a_at) / Fold change /veh ABCC12 (11746883_a_at) / RFU TMEM136 (11760407_x_at) / Fold change /veh TMEM136 (11760407_x_at) / RFU CLDN22 /// WWC2 (11732394_at) / Fold change /veh CLDN22 /// WWC2 (11732394_at) / RFU HLA-DPB1 (11760878_x_at) / Fold change /veh HLA-DPB1 (11760878_x_at) / RFU SPINT1 (11716480_a_at) / Fold change /veh SPINT1 (11716480_a_at) / RFU GAP43 (11754022_s_at) / Fold change /veh GAP43 (11754022_s_at) / RFU A4GNT (11735810_at) / Fold change /veh A4GNT (11735810_at) / RFU PRB3 (11715151_x_at) / Fold change /veh PRB3 (11715151_x_at) / RFU TUBB4B (11761932_at) / Fold change /veh TUBB4B (11761932_at) / RFU CAPN14 (11732068_a_at) / Fold change /veh CAPN14 (11732068_a_at) / RFU TMCC2 (11721928_a_at) / Fold change /veh TMCC2 (11721928_a_at) / RFU IRGQ (11745062_a_at) / Fold change /veh IRGQ (11745062_a_at) / RFU FAM174B (11720279_a_at) / Fold change /veh FAM174B (11720279_a_at) / RFU TMPRSS4 (11748680_a_at) / Fold change /veh TMPRSS4 (11748680_a_at) / RFU FAM212B (11763350_a_at) / Fold change /veh FAM212B (11763350_a_at) / RFU PLEKHG5 (11743358_a_at) / Fold change /veh PLEKHG5 (11743358_a_at) / RFU ZSCAN30 (11745921_a_at) / Fold change /veh ZSCAN30 (11745921_a_at) / RFU CMKLR1 (11741424_a_at) / Fold change /veh CMKLR1 (11741424_a_at) / RFU LOC101060620 /// MAPK8IP1 (11723275_at) / Fold change /veh LOC101060620 /// MAPK8IP1 (11723275_at) / RFU SPTSSB (11747773_x_at) / Fold change /veh SPTSSB (11747773_x_at) / RFU PRSS12 (11739890_at) / Fold change /veh PRSS12 (11739890_at) / RFU BIN1 (11741810_x_at) / Fold change /veh BIN1 (11741810_x_at) / RFU WNT11 (11732464_a_at) / Fold change /veh WNT11 (11732464_a_at) / RFU C10orf10 (11716521_a_at) / Fold change /veh C10orf10 (11716521_a_at) / RFU C5orf56 (11738089_at) / Fold change /veh C5orf56 (11738089_at) / RFU CYB561 (11721691_x_at) / Fold change /veh CYB561 (11721691_x_at) / RFU ANKRD19P (11752326_a_at) / Fold change /veh ANKRD19P (11752326_a_at) / RFU OR2T12 /// OR2T33 /// OR2T8 (11738714_s_at) / Fold change /veh OR2T12 /// OR2T33 /// OR2T8 (11738714_s_at) / RFU VCAN (11748164_a_at) / Fold change /veh VCAN (11748164_a_at) / RFU JSRP1 (11732532_at) / Fold change /veh JSRP1 (11732532_at) / RFU KRTAP10-11 (11738290_x_at) / Fold change /veh KRTAP10-11 (11738290_x_at) / RFU MYO3A (11730013_a_at) / Fold change /veh MYO3A (11730013_a_at) / RFU EBF3 (11725865_a_at) / Fold change /veh EBF3 (11725865_a_at) / RFU CAMK2N1 (11719241_x_at) / Fold change /veh CAMK2N1 (11719241_x_at) / RFU C5orf56 (11738088_a_at) / Fold change /veh C5orf56 (11738088_a_at) / RFU OLFML3 (11715873_a_at) / Fold change /veh OLFML3 (11715873_a_at) / RFU LOC100653217 /// NTM (11731650_a_at) / Fold change /veh LOC100653217 /// NTM (11731650_a_at) / RFU MAPK11 (11762145_a_at) / Fold change /veh MAPK11 (11762145_a_at) / RFU FIZ1 (11724087_x_at) / Fold change /veh FIZ1 (11724087_x_at) / RFU OASL (11726364_x_at) / Fold change /veh OASL (11726364_x_at) / RFU SOX15 (11748057_x_at) / Fold change /veh SOX15 (11748057_x_at) / RFU CD79A (11719716_a_at) / Fold change /veh CD79A (11719716_a_at) / RFU HIST1H1D (11736915_at) / Fold change /veh HIST1H1D (11736915_at) / RFU CASKIN2 (11723855_a_at) / Fold change /veh CASKIN2 (11723855_a_at) / RFU LOC730098 (11760151_x_at) / Fold change /veh LOC730098 (11760151_x_at) / RFU OR4N2 (11742367_at) / Fold change /veh OR4N2 (11742367_at) / RFU PRRT2 (11749266_a_at) / Fold change /veh PRRT2 (11749266_a_at) / RFU SNX32 (11753110_a_at) / Fold change /veh SNX32 (11753110_a_at) / RFU CDHR5 (11726645_a_at) / Fold change /veh CDHR5 (11726645_a_at) / RFU RCAN1 (11760418_a_at) / Fold change /veh RCAN1 (11760418_a_at) / RFU FAM167A (11723789_a_at) / Fold change /veh FAM167A (11723789_a_at) / RFU FAM26E (11764081_at) / Fold change /veh FAM26E (11764081_at) / RFU ISYNA1 (11749810_s_at) / Fold change /veh ISYNA1 (11749810_s_at) / RFU ACY1 (11761880_at) / Fold change /veh ACY1 (11761880_at) / RFU 11764098_at / Fold change /veh 11764098_at / RFU SAMD14 (11745864_x_at) / Fold change /veh SAMD14 (11745864_x_at) / RFU NPB (11741838_a_at) / Fold change /veh NPB (11741838_a_at) / RFU TMPRSS6 (11731388_a_at) / Fold change /veh TMPRSS6 (11731388_a_at) / RFU KRTAP10-2 (11738614_at) / Fold change /veh KRTAP10-2 (11738614_at) / RFU ARHGAP8 /// PRR5-ARHGAP8 (11727945_x_at) / Fold change /veh ARHGAP8 /// PRR5-ARHGAP8 (11727945_x_at) / RFU KRTAP5-7 /// NADSYN1 (11734609_at) / Fold change /veh KRTAP5-7 /// NADSYN1 (11734609_at) / RFU RASL12 (11751679_a_at) / Fold change /veh RASL12 (11751679_a_at) / RFU CDKN2B (11736163_a_at) / Fold change /veh CDKN2B (11736163_a_at) / RFU PRF1 (11729649_at) / Fold change /veh PRF1 (11729649_at) / RFU, ZNF638 /// ZNF638-IT1 / Fold change vs veh, ZNF638 /// ZNF638-IT1 / RFU, PANK3 / Fold change vs veh, PANK3 / RFU, SH3YL1 / Fold change vs veh, SH3YL1 / RFU, ZEB2 / Fold change vs veh, ZEB2 / RFU, NRIP1 / Fold change vs veh, NRIP1 / RFU, PTTG1IP / Fold change vs veh, PTTG1IP / RFU, CAPN2 / Fold change vs veh, CAPN2 / RFU, MED14 / Fold change vs veh, MED14 / RFU, SNORA58 / Fold change vs veh, SNORA58 / RFU, C1orf63 / Fold change vs veh, C1orf63 / RFU, LRRFIP1 / Fold change vs veh, LRRFIP1 / RFU, NDUFAF7 / Fold change vs veh, NDUFAF7 / RFU, SLC12A2 / Fold change vs veh, SLC12A2 / RFU, IBTK / Fold change vs veh, IBTK / RFU, ESF1 / Fold change vs veh, ESF1 / Fold change vs veh, TMEM50B / RFU, TAOK1 / Fold change vs veh, TAOK1 / RFU, ACBD3 / Fold change vs veh, ACBD3 / RFU, TMA16 / Fold change vs veh, TMA16 / RFU, RWDD3 / Fold change vs veh, RWDD3 / RFU, BCAT1 / Fold change vs veh, BCAT1 / RFU, EDEM3 / Fold change vs veh, EDEM3 / RFU, TMEM33 / Fold change vs veh, TMEM33 / RFU, WDR75 / Fold change vs veh, WDR75 / RFU, AHCTF1 / Fold change vs veh, AHCTF1 / RFU, TFRC / Fold change vs veh, TFRC / RFU, ZDHHC17 / Fold change vs veh, ZDHHC17 / RFU, NOM1 / Fold change vs veh, NOM1 / RFU, ARL8B / Fold change vs veh, ARL8B / RFU, ZBTB11 / Fold change vs veh, ZBTB11 / RFU, TAMM41 / Fold change vs veh, TAMM41 / RFU, KIAA1704 /// LOC100996395 / Fold change vs veh, KIAA1704 /// LOC100996395 / RFU, ING1 / Fold change vs veh, ING1 / RFU, TRMT61B / Fold change vs veh, TRMT61B / RFU, FUBP3 / Fold change vs veh, FUBP3 / RFU, TP53 / Fold change vs veh, TP53 / RFU, TNKS2 / Fold change vs veh, TNKS2 / RFU, ZFP14 / Fold change vs veh, ZFP14 / RFU, ACTR2 / Fold change vs veh, ACTR2 / RFU, PPP3R1 / Fold change vs veh, PPP3R1 / RFU, PIK3R1 / Fold change vs veh, PIK3R1 / RFU, HNRNPA1 / Fold change vs veh, HNRNPA1 / RFU, RNF170 / Fold change vs veh, RNF170 / RFU, ZNF28 / Fold change vs veh, ZNF28 / RFU, RNGTT / Fold change vs veh, RNGTT / RFU, OGT / Fold change vs veh, OGT / RFU, BRD1 / Fold change vs veh, BRD1 / RFU, MARS / Fold change vs veh, MARS / RFU, ZNF655 / Fold change vs veh, ZNF655 / RFU, FAHD1 / Fold change vs veh, FAHD1 / RFU, BDP1 / Fold change vs veh, BDP1 / RFU, LRRCC1 / Fold change vs veh, LRRCC1 / RFU, ARID1A / Fold change vs veh, ARID1A / RFU, ZNF146 / Fold change vs veh, ZNF146 / RFU, ZNF330 / Fold change vs veh, ZNF330 / RFU, GPN3 / Fold change vs veh, GPN3 / RFU, C9orf123 / Fold change vs veh, C9orf123 / RFU, N4BP2L2 / Fold change vs veh, N4BP2L2 / RFU, ARFIP1 / Fold change vs veh, ARFIP1 / RFU, FAM179B / Fold change vs veh, FAM179B / RFU, BCL10 / Fold change vs veh, BCL10 / RFU, UHRF1BP1L / Fold change vs veh, UHRF1BP1L / RFU, BET1 / Fold change vs veh, BET1 / RFU, CNOT2 / Fold change vs veh, CNOT2 / RFU, ZNF268 / Fold change vs veh, ZNF268 / Fold change vs veh, ZNF507 / RFU, DGCR2 / Fold change vs veh, DGCR2 / RFU, WDSUB1 / Fold change vs veh, WDSUB1 / Fold change vs veh, HSP90B1 /// MIR3652 / RFU, ADSS / Fold change vs veh, ADSS / RFU, GK / Fold change vs veh, GK / RFU, ZNF148 / Fold change vs veh, ZNF148 / RFU, TAF9 / Fold change vs veh, TAF9 / RFU, SLC1A5 / Fold change vs veh, SLC1A5 / RFU, SLMO2 / Fold change vs veh, SLMO2 / RFU, ABCC4 / Fold change vs veh, ABCC4 / RFU, LOC101060439 /// RAP1B / Fold change vs veh, LOC101060439 /// RAP1B / RFU, RFX7 / Fold change vs veh, RFX7 / RFU, GTPBP10 / Fold change vs veh, GTPBP10 / RFU, CNEP1R1 / Fold change vs veh, CNEP1R1 / RFU, BIVM-ERCC5 /// ERCC5 / Fold change vs veh, BIVM-ERCC5 /// ERCC5 / RFU, ILF3 / Fold change vs veh, ILF3 / RFU 11762660_at / Fold change /veh 11762660_at / RFU VCAN (11757783_s_at) / Fold change /veh VCAN (11757783_s_at) / RFU DDX43 (11728927_at) / Fold change /veh DDX43 (11728927_at) / RFU KRT8 (11758188_x_at) / Fold change /veh KRT8 (11758188_x_at) / RFU NKD1 (11759106_at) / Fold change /veh NKD1 (11759106_at) / RFU SRD5A1 (11742802_a_at) / Fold change /veh SRD5A1 (11742802_a_at) / RFU TPSAB1 /// TPSB2 (11721975_s_at) / Fold change /veh TPSAB1 /// TPSB2 (11721975_s_at) / RFU GSTM3 (11746129_a_at) / Fold change /veh GSTM3 (11746129_a_at) / RFU IL23R (11737362_x_at) / Fold change /veh IL23R (11737362_x_at) / RFU TMEM51 (11727254_a_at) / Fold change /veh TMEM51 (11727254_a_at) / RFU PIWIL2 (11732686_x_at) / Fold change /veh PIWIL2 (11732686_x_at) / RFU ORM1 (11744905_x_at) / Fold change /veh ORM1 (11744905_x_at) / RFU CCDC152 (11743942_at) / Fold change /veh CCDC152 (11743942_at) / RFU ECM1 (11717891_a_at) / Fold change /veh ECM1 (11717891_a_at) / RFU IL23R (11748794_a_at) / Fold change /veh IL23R (11748794_a_at) / RFU TNFAIP8L3 (11732012_x_at) / Fold change /veh TNFAIP8L3 (11732012_x_at) / RFU MBOAT4 (11741988_at) / Fold change /veh MBOAT4 (11741988_at) / RFU 11764193_at / Fold change /veh 11764193_at / RFU TMEM53 (11763286_at) / Fold change /veh TMEM53 (11763286_at) / RFU MAGEB2 (11727129_at) / Fold change /veh MAGEB2 (11727129_at) / RFU TMEM200A (11744735_a_at) / Fold change /veh TMEM200A (11744735_a_at) / RFU CCDC152 (11751479_a_at) / Fold change /veh CCDC152 (11751479_a_at) / RFU FAM211A (11726209_a_at) / Fold change /veh FAM211A (11726209_a_at) / RFU RGS16 (11746705_a_at) / Fold change /veh RGS16 (11746705_a_at) / RFU VCAN (11755009_s_at) / Fold change /veh VCAN (11755009_s_at) / RFU RHOB (11743442_s_at) / Fold change /veh RHOB (11743442_s_at) / RFU RGS16 (11720943_a_at) / Fold change /veh RGS16 (11720943_a_at) / RFU RGS16 (11720944_at) / Fold change /veh RGS16 (11720944_at) / RFU, VPS4B / Fold change vs veh, VPS4B / RFU, CREB1 / Fold change vs veh, CREB1 / RFU, DNAJC13 / Fold change vs veh, DNAJC13 / RFU, GNAQ / Fold change vs veh, GNAQ / RFU, CDK5R1 / Fold change vs veh, CDK5R1 / RFU, ZRANB3 / Fold change vs veh, ZRANB3 / RFU, CUL4A / Fold change vs veh, CUL4A / RFU, CCNY / Fold change vs veh, CCNY / RFU, UFL1 / Fold change vs veh, UFL1 / RFU, COG3 / Fold change vs veh, COG3 / RFU, DIAPH2 / Fold change vs veh, DIAPH2 / RFU, SKA2 / Fold change vs veh, SKA2 / RFU, AFF3 / Fold change vs veh, AFF3 / RFU, LMF1 / Fold change vs veh, LMF1 / RFU, IPO11 / Fold change vs veh, IPO11 / RFU, DFFB / Fold change vs veh, DFFB / RFU, FOXP1 / Fold change vs veh, FOXP1 / RFU, CARD8 / Fold change vs veh, CARD8 / RFU, STRN3 / Fold change vs veh, STRN3 / RFU, ADK / Fold change vs veh, ADK / RFU, RASSF2 / Fold change vs veh, RASSF2 / RFU, WIPF1 / Fold change vs veh, WIPF1 / RFU, LARP1B / Fold change vs veh, LARP1B / RFU, RASA1 / Fold change vs veh, RASA1 / RFU, RB1 / Fold change vs veh, RB1 / RFU, PPFIA1 / Fold change vs veh, PPFIA1 / RFU, MAT2A / Fold change vs veh, MAT2A / RFU, CCT5 / Fold change vs veh, CCT5 / RFU, WDR92 / Fold change vs veh, WDR92 / RFU, CUX1 / Fold change vs veh, CUX1 / RFU, TTC7A / Fold change vs veh, TTC7A / RFU, TMEM135 / Fold change vs veh, TMEM135 / RFU, DEPTOR / Fold change vs veh, DEPTOR / RFU, CPM / Fold change vs veh, CPM / RFU, DNAJB6 / Fold change vs veh, DNAJB6 / RFU, CACNA2D3 / Fold change vs veh, CACNA2D3 / RFU, DTX4 / Fold change vs veh, DTX4 / RFU, TFCP2 / Fold change vs veh, TFCP2 / RFU, GMCL1 /// GMCL1P1 / Fold change vs veh, GMCL1 /// GMCL1P1 / RFU, AEBP2 / Fold change vs veh, AEBP2 / RFU, SNHG1 /// SNORD22 /// SNORD25 /// SNORD26 /// SNORD27 /// SNORD28 /// SNORD29 /// SNORD31 / Fold change vs veh, SNHG1 /// SNORD22 /// SNORD25 /// SNORD26 /// SNORD27 /// SNORD28 /// SNORD29 /// SNORD31 / Fold change (Aza/veh), C12orf56 (ProbeSet 11735607_a_at) / Fold change (ACY-1035/veh), C12orf56 (ProbeSet 11735607_a_at) / Fold change (Aza/veh), FGFR1OP (ProbeSet 11751329_s_at) / Fold change (ACY-1035/veh), FGFR1OP (ProbeSet 11751329_s_at) / Fold change (Aza/veh), VPS36 (ProbeSet 11739960_a_at) / Fold change (ACY-1035/veh), VPS36 (ProbeSet 11739960_a_at) / RFU SYPL1 (11715823_x_at) / Fold change /veh SYPL1 (11715823_x_at) / RFU IGFBP7 (11715501_s_at) / Fold change /veh IGFBP7 (11715501_s_at) / RFU REEP3 (11722064_at) / Fold change /veh REEP3 (11722064_at) / RFU IGLL1 (11728026_x_at) / Fold change /veh IGLL1 (11728026_x_at): dose or concentration left out as unconfirmed.

On to `Nc1ncn([C@@H]2O[C@H](CO)[C@@H](O)[C@H]2O)c(=O)n1` [azacitidine], for which the “RFU CD79A (11719716_a_at)” value is given as 8.73 RFU.

These data come from paper PMC5218480 (PLoS ONE, 2017).
